The record followed here is patent US4378360A, “6-{3-[4-(Substituted benzyl)-1-piperazinyl]propyloxy}-4,9-dihydro-4,9-dioxo-1H-naphtho[2,3-d-]- v” (Beecham Group Limited, priority 1980, dated 1983).

Values joined by “and” are separate entries in the source; they are usually repeats but may differ in a detail not shown here. Equal values may be shown once.

Assay [1] has as its system rat passive peritoneal anaphylaxis. Description: Rat passive peritoneal anaphylaxis (PPA): histamine, SRS-A and dye in peritoneal fluid. The assay is classed as in vivo. Particulars: mean ± SEM, 5-7 rats per group. The text has this:
(a) inhibit rat passive peritoneal anaphylaxis; and
(a) Rat passive peritoneal anaphylaxis (PPA)
The method has been described previously (Ross, Janet W., Smith, H. and Spicer, Barbara A. Increased vascular permeability during passive peritoneal anaphylaxis in the rat, Int Arch Allergy appl Immun, 51, 226, 1976).
(§1) Charles River Sprague Dawley male rats of 225-275 g and Dunkin Hartley male white guinea pigs of 250-300 g were used.
This was raised in rats in one of two ways.
Charles River Sprague Dawley male rats of 225 to 275 g were given subcutaneous injections of 10 μg of ovalbumin (chicken egg albumin; crystallised and lyophilised, grade 3, Sigma London), in 0.5 ml of a suspension prepared by adding 1 ml of a 0.1 mg/ml solution of ovalbumin, in isotonic saline, to 4 ml of a 1% suspension of aluminium hydroxide in saline (Alhydrogel; Miles Laboratories, England; diluted 1:1 with isotonic saline). The rats were bled on day 10.
Charles River Sprague Dawley male rats of 225 to 300 g were given intraperitoneal injections of 0.5 ml of Bordetella pertussis vaccine (4×10^10 organisms/ml Burroughs Wellcome, London) and subcutaneous injections of 0.5 ml of an emulsion of 100 mg of ovalbumin of 2 ml of isotonic saline and 3 ml of Freund's incomplete adjuvant (Pifco Laboratories, Michigan USA). The rats were bled on day 18.
The rats were bled by cardiac puncture, the blood was pooled, from groups of rats treated similarly, and the serum separated, stored at -20° and thawed only once before use. The serum sensitised rats for passive cutaneous anaphylaxis (carried out as described: Spicer, Barbara A; Ross, Janet W and Smith, H; Inhibition of immediate hypersensitivity reactions in the rat by disodium cromoglycate and a nitroindanedione, Clin exp, Immunol, 21, 419, 1975) to a dilution of 1:32 to 1:64 persisting for at least 72 hours after sensitisation.
Rats were given intraperitoneal injections of 2 ml of a 1:5 dilution of the rat anti-serum in isotonic saline. Two hours later 0.3 ml of a 5% solution of Pontamine Sky Blue (Raymond A. Lamb, London) in isotonic saline was injected intravenously, followed by an intraperitoneal injection of the test compound in 1 ml of saline; (control rats received 1 ml of saline); followed 30 seconds later by an intraperitoneal injection of 5 ml of a Tyrode solution containing 50 μg/ml heparin and 0.4 mg/ml of ovalbumin. The concentrations of the compounds were quoted as those in the 6 ml of fluid injected intraperitoneally. Exactly 5 minutes after challenge the rats were stunned and bled and their peritoneal fluids were collected by opening their peritoneal cavities over funnels into polycarbonate tubes in ice. The supernatants were separated from the cellular residue by centrifuging at 150 g for 5 minutes and any samples obviously contaminated with blood were discarded for estimattion of dye, histamine and SRS-A. Groups of at least 5 rats were used for each dose of compound and the treatments were randomised.
Collected peritoneal fluids were immediately cooled to 0° C. and centrifuged and the supernatant fluids assayed for dye within 2 hours. 0.5 ml samples of the supernatants were added to 1 ml of 12% trichloracetic acid and stored at -20° C. and used to assay for histamine. The remainders of the supernatant fluids were placed in a boiling water bath for 5 minutes and stored frozen at -20° C. until assayed for SRS-A.
The optical densities (OD) at 625 nm of the supernatants were determined. Samples were taken from supernatants with an OD greater than 2 and diluted in Tyrode's solution before reading.
Histamine was assayed using an automated spectrofluorimetric system (Technicon Autoanalyser) by a method similar to that of Evans, D.P., Lewis, J. A. and Thomson, D. S.; (An automated fluorimetric assay for the rapid determination of histamine in biological fluids. Life Sci 12,327, 1973). […]

Assay [2] deals with T1, histamine on isolated guinea pig ileum (Cavia porcellus, UniProt P31389).
T1 construct: strips of terminal guinea pig ileum suspended in a 4 ml capacity organ bath; from tissue; host or cells: terminal ileum strips of guinea pig (Dunkin Hartley male white guinea pigs)
Put plainly: Antihistamine activity (in vitro): antagonism of the spasmogenic effects of histamine on isolated guinea pig ileum. The settings on record: Tyrode solution, 30° C., antagonist 5-640 ng/ml, several assays per compound. As for the experimental part: (b) antagonise the spasmogenic effects of histamine on isolated guinea pig ileum.
as §1
The anti-histamine activity of these compounds were measured in terms of pA2 values on guinea pig ileum using the method described by Arunlakshana, O. and Schild, H. O. (Brit J Pharm, 14, 1959, 48).
The pA2 is defined as the negative logarithm of the molar concentration of antagonist that will reduce the response of a double dose of agonist to that of a single dose.
Assays were carried out using strips of terminal guinea pig ileum suspended in a 4 ml capacity organ bath. The ileum was immersed in aerated Tyrode solution at a temperature of 30° C. and a tension of 1 gm was applied to the gut. Longitudinal contractions of the gut were recorded isotonically using a 2LD01 Devices transducer, a R2502-2 Devices optical wedge and a RE511.20 Smiths servoscribe flat bed recorder.
The tissue was constantly immersed in Tyrode solution washing was by fluid displacement from below. […]
The height of the response was measured in mms and a mean value calculated. […] The dose of histamine which produced a response of 100 mms were obtained for each curve from the graph and the ratio designated CR was calculated from [formula] […]

T1 sequence (P31389 whole entry): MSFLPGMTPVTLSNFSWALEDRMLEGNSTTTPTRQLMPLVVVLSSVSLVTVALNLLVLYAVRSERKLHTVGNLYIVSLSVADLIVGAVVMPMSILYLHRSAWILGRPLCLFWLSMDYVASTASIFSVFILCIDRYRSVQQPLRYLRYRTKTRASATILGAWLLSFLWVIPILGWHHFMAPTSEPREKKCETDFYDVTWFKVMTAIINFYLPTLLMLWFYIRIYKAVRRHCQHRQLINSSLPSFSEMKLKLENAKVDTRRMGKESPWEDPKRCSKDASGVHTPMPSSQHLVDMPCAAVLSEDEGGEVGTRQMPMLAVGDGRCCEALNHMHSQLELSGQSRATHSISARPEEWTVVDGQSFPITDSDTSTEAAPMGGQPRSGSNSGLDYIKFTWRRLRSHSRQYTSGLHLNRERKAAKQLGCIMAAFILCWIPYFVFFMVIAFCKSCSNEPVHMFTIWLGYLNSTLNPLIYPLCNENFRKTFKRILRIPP

For the compound `O=C1c2cccc(OCCCN3CCN(Cc4ccc(Cl)cc4)CC3)c2C(=O)c2nn[nH]c21` [Example 4, 5-{3-[4-(4-Chlorobenzyl)-1-piperazinyl]-propyloxy}-4,9-dihydro-4,9-dioxo-1H-naphtho-[2,3-d]-v-triazole], the entries for the “Dye concentration in peritoneal fluid as % of mean of controls” value in assay [1] (10^-5 M injected ip), in assay [1] (10^-6 M injected ip) and in assay [1] (10^-7 M injected ip) were 43 ± 2 % of mean of controls, 60 ± 11 % of mean of controls and 85 ± 9 % of mean of controls, respectively. The “Histamine concentration in peritoneal fluid as % of mean of controls” value in assay [1] (10^-5 M injected ip) is given as 10 ± 1 % of mean of controls; in assay [1] (10^-6 M injected ip) it was 27 ± 4 % of mean of controls; in assay [1] (10^-7 M injected ip), 67 ± 8 % of mean of controls.
For the compound `O=C1c2cc(OCCCN3CCN(Cc4ccccc4Cl)CC3)ccc2C(=O)c2[nH]nnc21` [Example 3, 6-{3-[4-(2-Chlorobenzyl)-1-piperazinyl]propyloxy}-4,9-dihydro-4,9-dioxo-1H-naphtho[2,3-d]-v-triazole], the “pA2 values obtained in different assays” value in assay [2] was 9.1 and 9.0.
For `O=C1c2cc(OCCCN3CCN(Cc4ccc(Cl)cc4)CC3)ccc2C(=O)c2[nH]nnc21` [Example 1, 6-{3-[4-(4-Chlorobenzyl)-1-piperazinyl]propyloxy}-4,9-dihydro-4,9-dioxo-1H-naphtho[2,3-d]-v-triazole], the “Dye concentration in peritoneal fluid as % of mean of controls” value in assay [1] (2 × 10^-5 M injected ip) is 29 ± 2 % of mean of controls; in assay [1] (2 × 10^-6 M injected ip), 47 ± 6 % of mean of controls; in assay [1] (10^-5 M injected ip), 38 ± 3 % of mean of controls; in assay [1] (10^-6 M injected ip), 54 ± 6 % of mean of controls; in assay [1] (10^-7 M injected ip) it was 75 ± 7 % of mean of controls. Moreover, the “Histamine concentration in peritoneal fluid as % of mean of controls” value in assay [1] (2 × 10^-5 M injected ip) is given as 16 ± 2 % of mean of controls; in assay [1] (2 × 10^-6 M injected ip) it was 23 ± 3 % of mean of controls; in assay [1] (10^-5 M injected ip), 17 ± 3 % of mean of controls; in assay [1] (10^-6 M injected ip), 27 ± 5 % of mean of controls; in assay [1] (10^-7 M injected ip), 90 ± 16 % of mean of controls. Also, the “SRS-A concentration in peritoneal fluid as % of mean of controls” value was 75 ± 13 % of mean of controls in assay [1] (2 × 10^-5 M injected ip); 119 ± 25 % of mean of controls in assay [1] (2 × 10^-6 M injected ip); 39 ± 8 % of mean of controls in assay [1] (10^-5 M injected ip); 65 ± 18 % of mean of controls in assay [1] (10^-6 M injected ip); 109 ± 18 % of mean of controls in assay [1] (10^-7 M injected ip). Further, the Kb in assay [2] (read-out: pA2 values obtained in different assays (converted)) is 1 nM and 0.501 nM (2×) and 1.26 nM.
